B1: IL-4: interleukin, cytokine (protein, UniProt P05112 25-153, looked up)
Interleukin-4: HKCDITLQEIIKTLNSLTEQKTLCTELTVTDIFAASKNTTEKETFCRAATVLRQFYSHHEKDTRCLGATAQQFHRHKQLIRFLKRLDRNLWGLAGLNSCPVKEANQSTLENFLERLKTIMREKYSKCSS

What was measured:
[1] = system: integrin expression on IEL lines; experiment: FACS analysis of integrin expression on cultured IEL; assay type: cell-based, human; details: culture of IEL lines with TGF-β1
Source text: Human intestinal tissue was obtained from fatal accident organ donors or from adult patients undergoing resection for colorectal carcinoma, from sections at least 10 cm away from macroscopically detectable lesions. IEL were isolated as described previously (Davies M. D. J. et al. (1981) Gut 22:481; Parker C. et al. (1992) Proc. Natl. Acad. Sci. USA 89:1924). once isolated, the IEL were stimulated with phytohemagglvtinin-P (PHA:Difco) and irradiated feeder cells (80% peripheral blood mononuclear cells and 20% JY lymphoblastoid cells) in Yssel's medium (Yssel H. et al. (1984) J. Immunol. Methods 72:219) containing 2 nM recombinant interleukin (IL)-2 (gift of Ajinomoto, Kawasaki, Japan), 4% (vol/vol) conditioned medium (Brenner M. et al. (1987) J. Immunol. 138:1502), 4% (vol/vol) fetal calf serum (Hyclone), and 50 AM 2-mercaptoethanol at 10% Co2. […] Two different anti-CD8 mAb (OKT8, CD8α; and T8/2T85H7, CD8β) were used to discriminate between expression of the CD8 αα homodimer and the CD8 αβ heterodimer. In agreement with previously reported data (Jarry A. et al. (1990) Eur. J. of Immunol. 20(5):1097), 10% of the CD8^+ cells expressed the homodimer. Thus, the lines were thought to be highly purified IEL preparations. Long term culture of the 032891 and 390I IEL lines was maintained by intermittent restimulation with PHA and irradiated feeder cells. In single color FACS analysis, the long term 032891 cell line was 99% CD3^+, 99% T cell receptor αβ positive, and 99% CD8 αβ positive. The 390I cell line was 99% CD3^+, 99% T cell receptor αβ positive, and 99% CD8 αβ positive and 6% CD4 positive. […]
FACS analysis was performed by suspending 2.5×10^5 cells in 100 μl of staining buffer (PBS, 1% BSA, 4% human serum, 0.02% NaN3) containing saturating concentrations of mAbs and incubating for 1 hr. at 4° C. […] Biotin-conjugated mAbs were used to stain the second molecule which was visualized by PE-conjugated streptavidin (Becton Dickinson & Co., Mountain View, Calif. Viable cells were analyzed using the FACScan or FACSort flow cytometer (Becton Dickinson & Co.).

[2] = system: IEL adhesion to 16E6.A5 epithelial cells; experiment: IEL adhesion to 16E6.A5 epithelial cell monolayers; assay type: cell-based, human; details: epithelial cell monolayers pretreated with cytokine
Protocol: Monolayers of adherent cells were grown in flat bottomed 96-well Linbro tissue culture plates. 10^4 adherent cells in 100 μl complete media were added per well and allowed to grow for two to three days until they reached confluence. Just prior to the addition of IEL or transfected COS 7 cells, the adherent cell monolayers were washed with assay media. To label IEL and COS-7 cells, 25 μg of 2′,7′-bis-(2-carboxyethyl)-5 (and -6)-carboxyfluorescein (BCECF-AM, Molecular Probes, Inc., Eugene, Oreg.) was diluted in 5 μl DMSO and added to a suspension of 5×10^6/ml IEL or COS-7 cells in complete media. The cells were incubated at 37° C. for 25 minutes then washed twice in assay media (PBS containing 1 mM CaCl2, 2 mM MgCl2 and 10 mM HEPES). After washing, 50,000 labeled IEL or COS-7 cells in 100 μl of assay media were added to the adherent cell monolayers. IEL or COS-7 cells were allowed to settle onto adherent cell monolayers for 25 or 40 min. at 37° C. Unbound cells were removed by flicking media from the plate. Bound cells were detected using a Fluorescence plate reader (IDEXX Co., Portland, Me.). If antibody blocking was performed, the IEL, COS-7 cells, epithelial cell monolayers, or L-M monolayers were pre-incubated with a 1:250 dilution of ascites fluid or 10 μg/ml of purified mAb for five minutes at 37° C. prior to encounter with the second cell type. At least four replicates were performed. The % cells bound was calculated by reading the fluorescence units obtained after unbound cells were washed off, dividing this number by the input fluorescence units and multiplying by 100. […] In adhesion assays where divalent cations were varied, the IEL were washed with Ca^++ and Mg^++ free Hank's balanced salt solution (HBSS) and pre-equilibrated with HBSS containing the indicated concentrations of MgCl2, MnCl2, or CaCl2 for 10 min. at 37° C. prior to incubation with 16E6.A5 monolayers which had been washed with Ca^++ and Mg^++ free HBSS. Disruption of T84 cell intercellular tight junctions.
The 16E6.A5 cell line was derived by immortalization of the 76N normal epithelial cell line through transfection of the E6 and E7 genes of human papilloma virus (by V. Band, Tufts University, publically available). Monolayers of these adherent cells are grown in flat-bottomed 96-well Linbro tissue culture plates. […] Bound cells are detected using a Fluorescence plate reader (IDEXX Co., Portland Me.). […] The % cells bound is calculated by reading the fluorescence units obtained after unbound cells are washed off and dividing this number by the input fluorescence units obtained after adding 50,000 cells/well and multiplying by 100. Serial dilutions of labeled cells have shown that as few as 1000 cells can be detected in the linear range.

[3] = system: homotypic E-cadherin adhesion; details: soluble recombinant protein produced in insect cells; cited from earlier work

Molecule | effect on IEL-to-epithelial cell adhesion [2] | other results
TGF-β1: transforming growth factor-beta 1 |  | expression of α^Eβ7 on IEL lines [1]: dramatically up-regulated; expression of α^Lβ2 on IEL lines [1]: down regulated; expression of β1 and its associated α chains on IEL lines [1]: little effect
TNF-α | no effect | 
Recombinant human E-cadherin: recombinant human E-cadherin containing nearly the entire extracellular domain, produced in insect cells (Herrenknecht and Kemler) |  | blocking of homophilic E-cadherin mediated cell-cell binding [3]: failed to block
IFN-γ: interferon, cytokine | increased adhesion | 
IL-1B: interleukin, cytokine | no effect | 
B1 | no effect | 
